Experimental data taken from US8062859B2, “Method for screening anticancer substances, set or kit for implementing said method” (Centre National de la Recherche Scientifique (CNRS), priority 2005, dated 2011).

Columns and labels:
Format in all cases: cell-based
[1] = test system: SW620 metastatic cell line; experiment: Formation of E-cadherin type intercellular junctions (immunofluorescent labelling of E-cadherin)
Method: (§1) 1. Protocol for Immunofluorescent Labelling of e-Cadherin 1—The cells are plated in 6-well plates, each well containing 3 glass coverslips 10 mm in diameter. 2—Place the cells in 0% Serum for 18 to 24 hours then treat them or not with Y27 10 μM+PDGF 5 ng/ml for 36 to 48 h. 3—Fix the cells for 10 minutes with formalin (3.7% formaldehyde in PBS). 4—Saturation, 10 minutes PBS-BSA 5—Incubation of the primary antibody, diluted to 1:500 in PBS-BSA, 2 hours at 37° C. (Mouse anti E-cadherin, ZYMED, ref: 13-1700) 6—2 rapid washes in PBS-0.1% Tween 7—Incubation of the secondary antibody (Alexa Fluor® 488 F(ab′)2 fragment of goat anti mouse IgG, Molecular Probes ref: A-11017), diluted to 1:2000 in PBS-BSA, 30 minutes at 37° C. 8—2 rapid washes in PBS-0.1% Tween 9—Mounting in Mowiol medium between the slide and the coverslip.

[2] = test system: CoLo205 metastatic cell line; experiment: Localisation of E-cadherin at intercellular junctions (immunofluorescent labelling); details: CoLo205, Y-27632 10 μM for 48 hours, FIG. 1
Method: as §1

[3] = test system: SKCo-1 metastatic cell line; experiment: as above; details: SKCo-1, Y-27632 10 μM for 48 hours, FIG. 1
Method: as §1

[4] = test system: SW620 metastatic cell line; experiment: Spreading ability of the cells (flat versus round phenotype)
Method: FIG. 2 illustrates the effect of the treatment of metastatic cells of the SW620 cell line by the inhibitor Y-27632 on the spreading ability of the cells (FIG. 2A) and on the formation of E-cadherin type adhesion junctions (FIG. 2B). In FIGS. 2 A and 2 B: on the left: control cells without inhibitor; on the right: cells incubated with Y-27632. On the x-axis: the percentage of flat cells (FIG. 2A) or the percentage of cells forming E-cadherin type intercellular junctions (FIG. 2B). 2—Place the cells in 0% Serum for 18 to 24 hours then treat them or not with Y27 10 μM+PDGF 5 ng/ml for 36 to 48 h.

[5] = test system: SW620 metastatic cell line; experiment: Invasion test (Matrigel, FluoroBlock inserts)
Method: 2. Invasion Test 1—On D-2, thaw the Matrigel at 4° C. all night 2—On D-1 measure the Matrigel into insert chambers: Put all the necessary material on ice (Matrigel, culture medium, tips, eppendorfs, etc. . . . ). Put the FluoroBlock inserts (FALCON, ref: 351152) in the 24-well plates (FALCON, ref: 353504). Dilute the Matrigel to 2 mg/ml in cold serumless medium (if the cells are to be subjected to a treatment X, include the product in the Matrigel, e.g.: Y 27632) Aliquot 100 μl of 2 mg/ml Matrigel per insert avoiding creating bubbles. Leave O/N at 37° C. in a humid atmosphere (in an incubator) 3—On D day, plate the cells on the Matrigel: First put 700 μl of 10% serum medium in a 24-well plate and transfer the inserts to this plate. Trypsinate the cells (previously treated or not . . . ) and take them up in 2% serum medium. Plate 50 000 cells per insert in 200 μl of 2% serum medium on the Matrigel (optionally put Y27632 into the plated cells). 4—The migration time varies depending on the cell type but generally allowing them to migrate for 8 hours fixing a point every 2 hours seems suitable. To fix them, transfer the inserts to a 24-well plate containing 1 ml of formalin (3.7% formaldehyde in PBS), suck up the culture medium inside the chambers and also add formalin (very important, prevents the cells from continuing to migrate in the Matrigel). […] Read the OD at 490 nm.

In the case of `C[C@@H](N)[C@H]1CC[C@H](C(=O)Nc2ccncc2)CC1` [Y-27632], the “location of E-cadherin at the junctions (in words)” value (from here on “location of E-cadherin”) ([1]; SW620, Y-27632 10 μM for 48 hours, FIG. 1) is reported as “causes correct relocation of E-cadherin at the junctions”, the “percentage of cells capable of forming E-cadherin type junctions” value ([1]; SW620 cells after treatment with Y-27632, FIG. 2B (control 22%)) is reported as 52% and the “formation of E-cadherin dependent junctions (in words)” value ([1]; SW620 cells, FIG. 1B and FIG. 2B) is reported as “enhances”. The “location of E-cadherin” value [2] was “causes correct relocation of E-cadherin at the junctions”, the “location of E-cadherin” value [3] was “causes correct relocation of E-cadherin at the junctions” and the “percentage of flat cells” value ([4]; SW620 cells after treatment with Y-27632, FIG. 2A (control 30%)) was 90%. For the same molecule, the “percentage of cells retaining a round phenotype” value ([4]; SW620 cells after treatment with Y-27632, FIG. 2A (control 70%)) was 10%, the “spreading ability of the cells (in words)” value ([4]; SW620 cells, FIG. 2A) was “enhances the spreading ability” and the “level of invasion, compared with CoN normal colon cells (in words)” value ([5]; SW620 cells after treatment with Y-27632, FIG. 3B) was “very low level of invasion, comparable to that of CoN normal colon cells”. For the same molecule, the “invasive capacity (in words)” value ([5]; SW620 cells treated with Y-27632, FIG. 3B) was “drastically reduce their invasive capacity”.
